# Measurements published in US20150079174A1, “ANTIMICROBIAL COMPLEXES” (Matera, LDA, priority 2012, published 2015).
# Like-named read-outs stand apart in the source and are kept apart here.
# Experiments:
# [1] = Critical micelle concentration (CMC) with fluorescent probe N-phenyl-1-naphthylamine; type: physicochemical; settings: surfactant in PBS pH 7.4
# Description: Critical Micelle Concentration (CMC) was determined for a range of surfactants, following the method described by Brito et al. ‘Determination of the critical micelle concentration of surfactants using the fluorescent probe N-phenyl-1-naphthylamine.’ Anal. Biochem 1986 (152) 250-255.
# Briefly, the surfactants were dissolved in PBS (pH 7.4), serially diluted and mixed with N-phenyl-1-naphthylamine (NPN; TCI). The fluorescence of each sample was quantified (excitation at 350 nm; emission at 420 nm) and plotted against the concentration of each surfactant. The CMC was found at the intersection of two straight lines traced on the emission intensity plot, defining the aqueous and micellar environments.
# The evolution of SWCNTs resuspension was performed by optical density measurement (at 600 nm) on a microplate reader. N-phenyl-1-naphthylamine (NPN) (Sigma-Aldrich) was used to determine the DDAB critical micelle concentration (CMC) and the presence of micelles on the SWCNT suspension. A solution of NPN of 2×10^−1 M in ethanol was prepared and further diluted in PBS to the working concentration of 2×10^−4 M. DDAB or SWCNT-DDAB suspensions were mixed in equal volumes on a opaque 96-well plate and the fluorescence measured with the assistance of a SpectraMax Fluoremeter using an excitation and emission wavelength of 320 and 450 nm, respectively.
# [2] = system: Candida albicans ATCC 10231; experiment: Minimal inhibitory concentration (growth kinetics at 600 nm / broth microdilution); settings: for MIC: Candida albicans, ATCC10231, 18 h
# Description: (§1) Growth kinetics of Candida albicans ATCC 10231 (C. albicans, fungi), Staphylococcus aureus ATCC 6538 (S. aureus, gram-positive bacteria) and Escherichia coli ATCC 25922 (E. coli, gram-negative bacteria) (1×10^5 cells/ml) exposed to variable concentrations (from 62.5 to 500 μg/ml for fungi and from 15.6 to 500 μg/ml for S. aureus and E. coli) of the surfactants was evaluated by absorbance at 600 nm. Inoculum corresponds to prokaryotic cells incubated without surfactants. The samples were prepared in a 96-well plate and incubated for 18 h at 30° C. (fungi) or 37° C. (bacteria) with constant shaking in a Biotek Synergy Mx spectrophotometer.
# (§2) Minimum inhibitory concentrations (MICs) were determined by the broth microdilution method according to the National Committee for Clinical Laboratory Standard (for yeasts; NCCLS; M27A2E) and the Clinical and Laboratory Standards Institute (for bacteria; CLSI; M07-A8) guidelines.
# (§3) Inoculum corresponds to prokaryotic cells incubated without SNPs. The samples were prepared as described above.
# (§4) Typically, SWCNTs coated with DDAB or other surfactants were diluted taking in account the initial surfactant concentration being the SWCNT concentration estimated by the corresponding mass ratio used. The antimicrobial activity of the coated SWCNTs was tested in suspension against Candida albicans ATCC 10231 (C. albicans, fungi), Staphylococcus aureus ATCC 6538 (S. aureus, bacteria gram-positive) and Escherichia coli ATCC 25922 (E. coli, bacteria gram-negative). Yeast Peptone Dextrose (YPD) and Tryptone Soy Yeast (TSY) media were used to culture yeast and bacteria, respectively. […] Inoculum corresponds to cells incubated without CNTs. The samples were prepared in a 96-well plate and incubated for 18 h at 30° C. (fungi) or 37° C. (bacteria) with constant shaking in a Biotek Synergy Mx spectrophotometer.
# [3] = system: Staphylococcus aureus ATCC 6538; experiment: as above; settings: for MIC: Staphylococcus aureus, ATCC6538, 18 h
# Description: as §1, §2, §3, §4
# [4] = system: Escherichia coli ATCC 25922; experiment: as above; settings: for MIC: Escherichia coli, ATCC25922, 18 h
# Description: as §1, §2, §3, §4
# [5] = read-out: MIC S. aureus, soluble surfactant, 15.6 to 500 μg/ml, 18 h at 37° C.
# [6] = soluble surfactant, 15.6 to 500 μg/ml, 18 h at 37° C.
structure (smiles),measurement,setting,value
"CCCCCCCCCCCC[N+](C)(C)CCCCCCCCCCCC.[Br-] [DDAB, didodecyldimethylammonium bromide]",CMC,[1],32.4 µg/mL
same,MIC,"[2]; read-out: MIC C. albicans, soluble surfactant, 62.5 to 500 μg/ml, 18 h at 30° C.",125 µg/mL
same,MIC C. albicans,"[2]; soluble surfactant, 62.5 to 500 μg/ml, 18 h at 30° C.",250 µg/mL
same,MIC,[3]; [5],31.2 µg/mL
same,MIC S. aureus,[3]; [6],31.3 µg/mL
same,MIC,[4]; read-out: MIC E. coli,125 µg/mL
"CCCCCCCCCCCC[N+](C)(CCCCCCCCCCCC)CCCCCCCCCCCC.[Cl-] [TMAC, tridodecylmethylammonium chloride]",CMC,[1],246.2 µg/mL
same,MIC,[3]; [5],125 µg/mL
"CCCCCCCCCCCC[N+](C)(C)C.[Br-] [DTAB, dodecyltrimethylammonium bromide]",CMC,[1],3515.1 µg/mL
same,MIC,[2]; read-out: MIC C. albicans,250 µg/mL
same,MIC,[3]; read-out: MIC S. aureus,31.2 µg/mL
same,MIC,"[4]; read-out: MIC E. coli, soluble surfactant, 15.6 to 500 μg/ml, 18 h at 37° C.",125 µg/mL
same,MIC E. coli,[4]; [6],62.5 µg/mL
"CCCCCCCCCCCCCCCC[N+](C)(C)CCCCCCCCCCCCCCCC.[Br-] [DHDAB, dihexadecyldimethylammonium bromide]",CMC,[1],5.2 µg/mL
"CCCCCCCCCCCCCC[N+](C)(C)CCCCCCCCCCCCCC.[Br-] [DTDAB, ditetradecyldimethylammonium bromide]",CMC,[1],7.8 µg/mL
